This note sets out measurements from patent US20230313313A1, “BIOMARKERS FOR CANCER THERAPY USING MDM2 ANTAGONISTS” (OTSUKA PHARMACEUTICAL CO., LTD., priority 2020, published 2023).

Entries after “also recorded” stand apart in the source; their conditions may differ.

The test system of data set [1] is acute myeloid leukemia blasts isolated from patients. The experiment in a line: Primary AML blasts sensitivity, 24 h apoptosis assay (Annexin V/PI). Particulars: 13 primary AML samples, two concentrations. Format: cell-based, human. On the procedure:
Low SKP2 expression is a biomarker for sensitivity of AML to MDM2 antagnists in patient-derived samples.
Evaluation of Primary AML Blasts Sensitivity to Compound 1
Primary frozen AML samples were purchased from NBS Biobank (Moscow, Russia). 13 primary AML samples with high blast content (>80%) were cultured in selected expansion media composed by StemSpan SFEM II media (Stemcell, #09605), 1× StemSpan CD34+ expansion supplement (Stemcell, #02691), 2% FBS and 1% Penicillin/Streptomycin.
Evaluation of SKP2 Protein Expression on Primary AML Blasts
Capillary Western analyses were performed using the ProteinSimple Wes System (San Jose, CA, USA). Antibodies used were specific for SKP2 (#4358) and TXN1 (#2429) as loading control. Samples were diluted with 0.1× Sample Buffer. Then 4 parts of diluted sample were combined with 1 part 5× Fluorescent Master Mix (containing 5× sample buffer, 5× fluorescent standard, and 200 mM DTT) and heated at 95° C. for 5 min. After this denaturation step, the prepared samples, blocking reagent, primary antibodies (1:10 dilution for SKP2, 1:100 for TXN1), HRP-conjugated secondary antibodies and chemiluminescent substrate were dispensed into designated wells in an assay plate. A biotinylated ladder provided molecular weight standards for each assay. […]

The next data set concerns OCI-AML3 cells. The data set can be described thus: Induction of apoptosis by cleaved caspase-3 cytometry, combination with IAP antagonist. The following applies: 0.1 μM, 72 h. In kind it is cell-based, human.
Data set [2] deals with MV4-11 cells. The experiment in a line: In vivo systemic AML mouse model, PCR for circulating human DNA. Particulars: MV4-11 empty vector (absence of SKP2 overexpression); NSG mice. On the procedure:
In addition to assessing the effect of SKP2 overexpression and knockdown in vitro, the impact of SKP2 on cancer proliferation was evaluated in vivo, using a disseminated AML model based on the MV4-11 cell line. To generate a systemic in vivo model of AML, NSG mice were injected in the tail vein with MV4-11 cells engineered to overexpress SKP2 or empty vector. Systemic tumour burden was assessed by PCR for circulating human DNA.
(§1) In Vivo Systemic AML Mouse Model
(§2) Female NSG Mice (6-8 weeks old) were bought from Jackson Laboratories (Bar Harbor, ME). Animals were given an intravenous injection of 5×10^6 MV4-11 cells and tumour engraftment was assessed by PCR for circulating human DNA. Mice were randomized to treatment groups based on systemic tumour burden as detected by PCR. Leukemic burden was then monitored weekly by serial bleeding followed by PCR. Mice were observed daily and euthanized humanely upon signs of terminal illness (hind limb paralysis, inability to eat/drink, moribund lethargy).
PCR for Circulating Human DNA
Blood samples were collected in heparinized capillary tubes and samples were stored at −80° C. until analysis. DNA was extracted using the DNeasy Blood & Tissue Kit (Qiagen, Cat: 69504) and PCR for human DNA was run using TaqMan™ Genotyping Master Mix (ThermoFisherScientific Catalog number: 4371355) using the following primers: […]

Data set [3] concerns MV4-11 cells. The data set can be described thus: Apoptosis assay by cytometry, MV4-11 overexpressing SKP2. In kind it is cell-based, human. The following applies: MV4-11 SKP2 OE, 48-hour treatment with 2 different concentrations. On the procedure: (§3) Precision LentiORF Transduction:
(§4) Precision LentiORF Lentiviral Transduction Particles (Cat. OHS5900-224629438, Dharmacon, UK) were used to overexpress SKP2 in the MV4-11 AML cell line. Stable gene overexpression was established by cellular resistance to blasticidin (5 μg/ml) and was confirmed at the protein level by western blot. The Precision LentiORF control empty vector (Dharmacon, UK) served as a negative control.
(§5) Apoptosis Assay by Cytometry
(§6) The cell lines were plated out in 6-well plates at 0.5×10^6 cells/ml (2 ml/well) the day before treatment and allowed to recover overnight in a humidified 5% CO2/air incubator at 37° C. […] Briefly, the cells were resuspended with the Annexin V-binding buffer and stained with Annexin V-conjugate. Samples were incubated for 20 min at room temperature in the dark. After washing with the Annexin V-binding buffer, the cells were analyzed with a flow cytometer.
(§7) For caspase 3/7 staining CellEvent™ Caspase 3/7 Green reagent (Life Technologies), a fluorogenic substrate for activated caspase-3 and -7 was used according to the manufacturer's protocol. The cells were incubated with 5 μM of substrate for 30 min at room temperature and then analyzed with a flow cytometer.

The next data set relates to OCI-AML3 AML cell line. The experiment in a line: Apoptosis after SKP2 knockdown in a non-apoptotic AML cell line. Format: cell-based, human. Here is the method: shRNA Lentiviral Transduction:
MISSION® shRNA Lentiviral Transduction Particles (Sigma Aldrich, Pool, UK) were used to knockdown SKP2 in the OCI-AML3 AML cell line. Stable gene knockdown was established by cellular resistance to puromycin (1 μg/ml) and was confirmed at the protein level by western blot.
as §5, §6, §7

For the next data set, the system named is AML cell lines. The data set can be described thus: Activated caspase-3 by cytometry in AML cell lines. Format: cell-based, human. Here is the method:
Levels of Compound 1-induced apoptosis were measured as percentage of cells with activated caspase-3. […] The extent of Compound 1-induced apoptosis is not predicted from the IC50 values obtained from the Alamar Blue proliferation assays, thus emphasising the impact of grouping cell lines specifically based on their apoptotic potential for subsequent analyses described in the following section.
Activated Caspase-3 by Cytometry
The cell lines were plated out in 6-well plates at 0.5×10^6 cells/ml (2 ml/well) the day before treatment and allowed to recover overnight in a humidified 5% CO2/air incubator at 37° C. […] 200 μl of each sample was added to duplicate wells of a 96-well plate. To one of the two wells, 50 μl of serum-free medium was added as an unstained control. […] The plate was incubated in the dark for 30 minutes before measuring fluorescent stained cells in a Guava EasyCyte HT cytometer (Merck Millipore, Kenilworth, NJ, USA). Activated caspase-3 staining was recorded in the GRN-B (green) channel, with unstained and DMSO control wells being used to set the gated stained and unstained cell populations—allowing the percentage of cells that are apoptotic to be calculated.

Data set [4] has as its system MV4-11 tumour cells in the bone marrow. The experiment in a line: In vivo systemic AML mouse model, bone marrow flow cytometry. The arrangement: species or system NSG mice. The following applies: 14 days after treatment. Here is the method: Thus, overexpression of SKP2 is able to turn a sensitive AML cell line into a resistant cell line in vivo, providing evidence that low SKP2 is an important biomarker for sensitivity to MDM2 antagonism.
as §1, §2
Bone Marrow Flow Cytometry
Bone marrow cells were stained with PE-CF594 Anti-Human CD45 (BD 562312), BB515 Anti-Mouse CD45 (BD 564590) and DAPI. The amount of human cells engrafted in the bone marrow is expressed as % of viable mouse CD45+ cells.
On the technique in general: Flow cytometry measures light scatter and fluorescence of single cells or particles in a stream.

The subject of data set [5] is MV4-11 cells. The data set can be described thus: Alamar Blue proliferation assay, MV4-11 overexpressing SKP2 vs control. In kind it is cell-based, human. The following applies: MV4-11 SKP2 OE compared to control. Here is the method:
as §3, §4
The number of viable cells was determined by Alamar Blue assay (Bio-Rad, Irvine, CA, USA). All cell lines were grown and assayed in RPMI-1640+10% FBS medium.
Compounds were diluted first in DMSO and then into serum-free medium, before addition to triplicate wells of the cultured cells to give a 0.1% DMSO final concentration. […] Twenty μl of Alamar Blue™ (AbD Serotec/Bio-Rad) was added to each well and plates were then incubated for 4-6 h at 37° C. in an atmosphere of 5% CO2 and air. Plates were then read at 535 nm (excitation) and 590 nm (emission) on a SpectraMax Gemini reader (Molecular Devices, San Jose, CA, USA).
In general terms: Alamar Blue is a resazurin reagent that responds to reducing activity.

Another data set relates to SJSA-1. The experiment in a line: Protocol B: SJSA-1 CellTiter-Glo Luminescent Cell Viability Assay. Particulars: Homo sapiens, SJSA-1, read-out: SJSA1 IC50 (μM) (Protocol B). On the technique in general: In ATP-based viability assays light output follows the ATP content of the culture.

Description for OCI-AML3 cells: Cleaved caspase-3 staining was recorded in the FL1 (green) channel, with unstained and DMSO control wells being used to set the gated stained and unstained cell populations—allowing the percentage of cells that are apoptotic to be calculated.

For the molecule `CC[C@@](O)(c1cc(F)c2c(c1)C(=O)N([C@H](c1ccc(Cl)cc1)[C@H](C)C(=O)O)[C@@]2(OC)c1ccc(Cl)cc1)C1CCOCC1` [Compound 1, (2S,3S)-3-(4-chlorophenyl)-3-[(1R)-1-(4-chlorophenyl)-7-fluoro-5-[(1S)-1-hydroxy-1-(oxan-4-yl)propyl]-1-methoxy-3-oxo-2,3-dihydro-1H-isoindol-2-yl]-2-methylpropanoic acid], the “sensitivity of SKP2 low blasts compared with SKP2 high blasts” value in data set [1] is given as “more sensitive”. For the same molecule, the “level of apoptosis (cleaved caspase-3), single agent” value was “did not induce a high level of apoptosis” with OCI-AML3 cells and “does not induce substantial levels of cell death by apoptosis” in the data set on OCI-AML3 cells (listed as Compund 1). Besides, the “systemic tumour burden (circulating human DNA)” value with MV4-11 cells [2] is “only low levels of circulating human DNA”. Also, the “effect of SKP2 overexpression on apoptosis / cell death” value with MV4-11 cells [3] is listed as “reduces Compound 1-dependent cell death; also recorded: strong reduction in apoptosis”. In the data set on OCI-AML3 AML cell line (non-apoptotic AML cell line), the “effect of SKP2 knockdown on cytotoxicity” value is given as “increases Compound 1-induced cytotoxicity”. Besides, the “increase of apoptosis on SKP2 knockdown compared to control (no SKP2 knockdown)” value in the data set with OCI-AML3 AML cell line (non-apoptotic AML cell line (high basal SKP2), 0.1 μM) is reported as “about 30%”. Besides, in the data set on AML cell lines (HNT-34, OCI-AML3, ML-2, GDM-1 (non-apoptotic), 48-hour treatment with 100 nM), the “apoptosis (cells with activated caspase-3)” value is below 30%. In the data set on AML cell lines (MV4-11, EOL-1, Molm-13, OCI-AML-2 and BDCM (apoptotic), 48-hour treatment with 100 nM), the “cells staining positive for activated caspase-3” value is above 30%. Further, the “increase in activated caspase-3” value with AML cell lines (panel of 12 AML cell lines, negative control KG-1, TP53 mutant) is recorded as “observed in all cell lines except the negative control”. Also, the “bone marrow tumour burden (FACS)” value in [4] (SKP2 overexpressed) is given as “does not reduce the number of leukemic cells; also recorded: no effects”. Besides, the “leukemic tumour cells in the bone marrow (FACS)” value in [4] (absence of SKP2 overexpression) is “reduces the number of leukemia cells; also recorded: significant decrease”. The “effect of SKP2 overexpression on cytotoxicity / sensitivity” value with MV4-11 cells [5] is “reduces Compound 1-induced cytotoxicity; also recorded: resistant”.
On to `[2H]C([2H])(O)C1(C([2H])([2H])O[C@]2(c3ccc(Cl)cc3)c3c(F)cc(C(O)(CC)c4cn(C)cn4)cc3C(=O)N2Cc2ccc(C#N)cn2)CC1` (some centres unmarked) [Example 440], for which the IC50 (as a rule, the point on the concentration scale where inhibition reaches its midpoint) with SJSA-1 came to 1.9 µM.
